Laboratory results from patent US10004701B2, “Methods and compositions for treating infection” (UNIVERSITY OF ROCHESTER, priority 2012, dated 2018).
Structures can show the parent of a compound that is named as a salt. Where two headings read alike, the source gives them in different places.

Legend:
Experiment in all cases: AK assay 384-well format, Prestwick library screening
E. faecium = assay type: cell-based, Enterococcus faecium; conditions: 50 μM final drug concentration; for fold induction at 50 µM: Enterococcus faecium, 3 h
[1] = system: S. aureus strain USA300-0114; assay type: cell-based, Staphylococcus aureus; conditions: 50 μM final drug concentration; for fold induction at 50 µM: Staphylococcus aureus, USA300, 3 h
K. pneumoniae = assay type: cell-based, Klebsiella pneumoniae; conditions: 50 μM final drug concentration; for fold induction at 50 µM: Klebsiella pneumoniae, 3 h
[2] = system: A. baumannii strain 98-37-09; assay type: cell-based, Acinetobacter baumannii; conditions: 50 μM final drug concentration; for fold induction at 50 µM: Acinetobacter baumannii, 983709, 3 h
P. aeruginosa = assay type: cell-based, Pseudomonas aeruginosa; conditions: 50 μM final drug concentration; for fold induction at 50 µM: Pseudomonas aeruginosa, 3 h
E. cloacae = assay type: cell-based, Enterobacter cloacae; conditions: 50 μM final drug concentration; for fold induction at 50 µM: Enterobacter cloacae, 3 h
E. coli = assay type: cell-based, Escherichia coli; conditions: 50 μM final drug concentration; for fold induction at 50 µM: Escherichia coli, 3 h
[3] = cutoff for positive-scoring molecules 3-fold increase, read-out: AK-based Prestwick Library Screening Results, E. faecium (fold increase in extracellular AK activity)
[4] = cutoff for positive-scoring molecules 3-fold increase, read-out: AK-based Prestwick Library Screening Results, S. aureus (fold increase in extracellular AK activity)
[5] = cutoff for positive-scoring molecules 3-fold increase, read-out: AK-based Prestwick Library Screening Results, K. pneumoniae (fold increase in extracellular AK activity)
[6] = cutoff for positive-scoring molecules 3-fold increase, read-out: AK-based Prestwick Library Screening Results, A. baumannii (fold increase in extracellular AK activity)
[7] = cutoff for positive-scoring molecules 3-fold increase, read-out: AK-based Prestwick Library Screening Results, P. aeruginosa (fold increase in extracellular AK activity)
[8] = cutoff for positive-scoring molecules 3-fold increase, read-out: AK-based Prestwick Library Screening Results, E. cloacae (fold increase in extracellular AK activity)
[9] = cutoff for positive-scoring molecules 3-fold increase, read-out: AK-based Prestwick Library Screening Results, E. coli (fold increase in extracellular AK activity)
[10] = planktonic, cutoff for positive 3-fold increase, read-out: AK-based Prestwick Library Screening Results, E. faecium (fold increase in extracellular AK activity)
[11] = planktonic, cutoff for positive 3-fold increase, read-out: AK-based Prestwick Library Screening Results, S. aureus (fold increase in extracellular AK activity)
[12] = planktonic, cutoff for positive 3-fold increase, read-out: AK-based Prestwick Library Screening Results, K. pneumoniae (fold increase in extracellular AK activity)
[13] = planktonic, cutoff for positive 3-fold increase, read-out: AK-based Prestwick Library Screening Results, A. baumannii (fold increase in extracellular AK activity)
[14] = planktonic, cutoff for positive 3-fold increase, read-out: AK-based Prestwick Library Screening Results, P. aeruginosa (fold increase in extracellular AK activity)
[15] = planktonic, cutoff for positive 3-fold increase, read-out: AK-based Prestwick Library Screening Results, E. cloacae (fold increase in extracellular AK activity)
[16] = planktonic, cutoff for positive 3-fold increase, read-out: AK-based Prestwick Library Screening Results, E. coli (fold increase in extracellular AK activity)
[17] = 384-well format, cutoff for positive-scoring molecules 3-fold increase, read-out: AK-based Prestwick Library Screening Results, E. faecium (increase in extracellular AK activity)
[18] = 384-well format, cutoff for positive-scoring molecules 3-fold increase, read-out: AK-based Prestwick Library Screening Results, S. aureus (increase in extracellular AK activity)
[19] = 384-well format, cutoff for positive-scoring molecules 3-fold increase, read-out: AK-based Prestwick Library Screening Results, K. pneumoniae (increase in extracellular AK activity)
[20] = 384-well format, cutoff for positive-scoring molecules 3-fold increase, read-out: AK-based Prestwick Library Screening Results, A. baumannii (increase in extracellular AK activity)
[21] = 384-well format, cutoff for positive-scoring molecules 3-fold increase, read-out: AK-based Prestwick Library Screening Results, P. aeruginosa (increase in extracellular AK activity)
[22] = 384-well format, cutoff for positive-scoring molecules 3-fold increase, read-out: AK-based Prestwick Library Screening Results, E. cloacae (increase in extracellular AK activity)
[23] = 384-well format, cutoff for positive-scoring molecules 3-fold increase, read-out: AK-based Prestwick Library Screening Results, E. coli (increase in extracellular AK activity)

SMILES: COc1ccc(-c2ccc(=N)n(CCCC(=O)O)n2)cc1 [Gabazine]
- fold induction at 50 µM (E. faecium; planktonic E. faecium, cutoff for positive-scoring molecules 3-fold increase, read-out: AK-based Prestwick Library Screening Results, E. faecium (increase in extracellular AK activity)): 1.1
- fold induction at 50 µM ([1]; planktonic S. aureus, cutoff for positive-scoring molecules 3-fold increase, read-out: AK-based Prestwick Library Screening Results, S. aureus (increase in extracellular AK activity)): 1.1
- fold induction at 50 µM (K. pneumoniae; planktonic K. pneumoniae, cutoff for positive-scoring molecules 3-fold increase, read-out: AK-based Prestwick Library Screening Results, K. pneumoniae (increase in extracellular AK activity)): 0.8
- fold induction at 50 µM ([2]; planktonic A. baumannii, cutoff for positive-scoring molecules 3-fold increase, read-out: AK-based Prestwick Library Screening Results, A. baumannii (increase in extracellular AK activity)): 1.1
- fold induction at 50 µM (P. aeruginosa; planktonic P. aeruginosa, cutoff for positive-scoring molecules 3-fold increase, read-out: AK-based Prestwick Library Screening Results, P. aeruginosa (increase in extracellular AK activity)): 1
- fold induction at 50 µM (E. cloacae; planktonic E. cloacae, cutoff for positive-scoring molecules 3-fold increase, read-out: AK-based Prestwick Library Screening Results, E. cloacae (increase in extracellular AK activity)): 1.3
- fold induction at 50 µM (E. coli; planktonic E. coli, cutoff for positive-scoring molecules 3-fold increase, read-out: AK-based Prestwick Library Screening Results, E. coli (increase in extracellular AK activity)): 1

SMILES: Cc1ccnc(NS(=O)(=O)c2ccc(N)cc2)n1 [Sulfamerazine]
- fold induction at 50 µM (E. faecium; [3]): 1
- fold induction at 50 µM [1, 4]: 0.9
- fold induction at 50 µM (K. pneumoniae; [5]): 1
- fold induction at 50 µM [2, 6]: 2.1
- fold induction at 50 µM (P. aeruginosa; [7]): 1
- fold induction at 50 µM (E. cloacae; [8]): 1.9
- fold induction at 50 µM (E. coli; [9]): 1.1

SMILES: CN1C[C@H](CO)C=C2c3cccc4[nH]cc(c34)C[C@H]21 [Lysergol]
- AK-based Prestwick Library Screening Results, E. faecium (fold increase in extracellular AK activity) (E. faecium; planktonic, […]): 0.9
- AK-based Prestwick Library Screening Results, S. aureus (fold increase in extracellular AK activity) ([1]; planktonic, […]): 0.9
- AK-based Prestwick Library Screening Results, K. pneumoniae (fold increase in extracellular AK activity) (K. pneumoniae; planktonic, […]): 0.8
- AK-based Prestwick Library Screening Results, A. baumannii (fold increase in extracellular AK activity) ([2]; planktonic, […]): 1.0
- AK-based Prestwick Library Screening Results, P. aeruginosa (fold increase in extracellular AK activity) (P. aeruginosa; planktonic, […]): 1.1
- AK-based Prestwick Library Screening Results, E. cloacae (fold increase in extracellular AK activity) (E. cloacae; planktonic, […]): 1.6
- AK-based Prestwick Library Screening Results, E. coli (fold increase in extracellular AK activity) (E. coli; planktonic, […]): 1.1

SMILES: CC(=O)O[C@]1(C(C)=O)CC[C@H]2[C@@H]3C=C(C)C4=CC(=O)CC[C@]4(C)[C@H]3CC[C@@]21C [Megestrol acetate]
- fold induction at 50 µM (E. faecium; [3]): 1.2
- fold induction at 50 µM [1, 4]: 0.9
- fold induction at 50 µM (K. pneumoniae; [5]): 1
- fold induction at 50 µM [2, 6]: 1.2
- fold induction at 50 µM (P. aeruginosa; [7]): 1.2
- fold induction at 50 µM (E. cloacae; [8]): 1.6
- fold induction at 50 µM (E. coli; [9]): 1.1

SMILES: O=c1[nH]c(=O)n([C@H]2C[C@H](O)[C@@H](CO)O2)cc1C(F)(F)F [Trifluridine]
- fold induction at 50 µM (E. faecium; planktonic E. faecium, […], read-out: AK-based Prestwick library screening result, E. faecium (fold increase in extracellular AK activity)): 0.9
- fold induction at 50 µM ([1]; planktonic S. aureus, […], read-out: AK-based Prestwick library screening result, S. aureus (fold increase in extracellular AK activity)): 0.7
- fold induction at 50 µM (K. pneumoniae; planktonic K. pneumoniae, […], read-out: AK-based Prestwick library screening result, K. pneumoniae (fold increase in extracellular AK activity)): 1.1
- fold induction at 50 µM ([2]; planktonic A. baumannii, […], read-out: AK-based Prestwick library screening result, A. baumannii (fold increase in extracellular AK activity)): 1.1
- fold induction at 50 µM (P. aeruginosa; planktonic P. aeruginosa, […], read-out: AK-based Prestwick library screening result, P. aeruginosa (fold increase in extracellular AK activity)): 0.6
- fold induction at 50 µM (E. cloacae; planktonic E. cloacae, […], read-out: AK-based Prestwick library screening result, E. cloacae (fold increase in extracellular AK activity)): 0.7
- fold induction at 50 µM (E. coli; planktonic E. coli, […], read-out: AK-based Prestwick library screening result, E. coli (fold increase in extracellular AK activity)): 0.9

SMILES: CC(=O)N(O)CCCCCNC(=O)CCC(=O)N(O)CCCCCNC(=O)CCC(=O)N(O)CCCCCN [Deferoxamine mesylate]
- fold induction at 50 µM (E. faecium; [10]): 0.9
- fold induction at 50 µM [1, 11]: 0.4
- fold induction at 50 µM (K. pneumoniae; [12]): 0.5
- fold induction at 50 µM [2, 13]: 0.4
- fold induction at 50 µM (P. aeruginosa; [14]): 0.4
- fold induction at 50 µM (E. cloacae; [15]): 0.4
- fold induction at 50 µM (E. coli; [16]): 0.4

SMILES: CS(=O)(=O)c1ccc([C@@H](O)[C@@H](CO)NC(=O)C(Cl)Cl)cc1 [Thiamphenicol]
- fold induction at 50 µM (E. faecium; [17]): 0.9
- fold induction at 50 µM [1, 18]: 8.7
- fold induction at 50 µM (K. pneumoniae; [19]): 0.4
- fold induction at 50 µM [2, 20]: 0.9
- fold induction at 50 µM (P. aeruginosa; [21]): 0.8
- fold induction at 50 µM (E. cloacae; [22]): 1.4
- fold induction at 50 µM (E. coli; [23]): 0.9

SMILES: C[C@H](CCC(=O)O)[C@H]1CC[C@H]2[C@@H]3C(=O)C[C@@H]4CC(=O)CC[C@]4(C)[C@H]3CC(=O)[C@]12C [Dehydrocholic acid]
- fold induction at 50 µM (E. faecium; [17]): 1
- fold induction at 50 µM [1, 18]: 1
- fold induction at 50 µM (K. pneumoniae; [19]): 0.8
- fold induction at 50 µM [2, 20]: 1
- fold induction at 50 µM (P. aeruginosa; [21]): 1
- fold induction at 50 µM (E. cloacae; [22]): 1.4
- fold induction at 50 µM (E. coli; [23]): 1.3

SMILES: C=CCN1CCCC1CNC(=O)c1cc2[nH]nnc2cc1OC (stereo not shown) [Alizapride HCl]
- fold induction at 50 µM (E. faecium; [10]): 1
- fold induction at 50 µM [1, 11]: 1
- fold induction at 50 µM (K. pneumoniae; [12]): 0.9
- fold induction at 50 µM [2, 13]: 1.1
- fold induction at 50 µM (P. aeruginosa; [14]): 1.1
- fold induction at 50 µM (E. cloacae; [15]): 1.4
- fold induction at 50 µM (E. coli; [16]): 1

SMILES: C[C@]12CC[C@@H]3c4ccc(OS(=O)(=O)O)cc4CC[C@H]3[C@@H]1CCC2=O [Estropipate]
- fold induction at 50 µM (E. faecium; planktonic, cutoff for positive-scoring molecules 3-fold increase, read-out: AK-based Prestwick Library Screening Results, E. faecium (fold increase in extracellular AK activity)): 1
- fold induction at 50 µM ([1]; planktonic, cutoff for positive-scoring molecules 3-fold increase, read-out: AK-based Prestwick Library Screening Results, S. aureus (fold increase in extracellular AK activity)): 1.1
- fold induction at 50 µM (K. pneumoniae; planktonic, cutoff for positive-scoring molecules 3-fold increase, read-out: AK-based Prestwick Library Screening Results, K. pneumoniae (fold increase in extracellular AK activity)): 1
- fold induction at 50 µM ([2]; planktonic, cutoff for positive-scoring molecules 3-fold increase, read-out: AK-based Prestwick Library Screening Results, A. baumannii (fold increase in extracellular AK activity)): 1
- fold induction at 50 µM (P. aeruginosa; planktonic, cutoff for positive-scoring molecules 3-fold increase, read-out: AK-based Prestwick Library Screening Results, P. aeruginosa (fold increase in extracellular AK activity)): 1.1
- fold induction at 50 µM (E. cloacae; planktonic, cutoff for positive-scoring molecules 3-fold increase, read-out: AK-based Prestwick Library Screening Results, E. cloacae (fold increase in extracellular AK activity)): 1.3
- fold induction at 50 µM (E. coli; planktonic, cutoff for positive-scoring molecules 3-fold increase, read-out: AK-based Prestwick Library Screening Results, E. coli (fold increase in extracellular AK activity)): 1.1
